# Measurements reported in patent publication US20130209522A1, “Drug Release from a Polymer-Controlled Local Antibiotic Delivery System Using a Degradable Bone Graft” (UNIVERSITY OF UTAH RESEARCH FOUNDATION, priority 2012, published 2013).
# Where a name gives a salt, the structure may show the parent alone. Read-outs that look alike come from different tables or passages of the source.
# Columns and labels:
# [1] = system: Staphylococcus aureus (ATCC 25923); assay: Zone of inhibition of antibiotic release samples; format: cell-based; details: released from PCL-coated allograft bone
# Protocol: Zone of Inhibition. Immediately following the kinetics assay, filter paper disks (diameter=6 mm) were placed in the antibiotic release samples in the 96-well plate and dried overnight. Staphylococcus aureus (ATCC 25923 from American Type Culture Collection, Manassas, Va., USA) streaked Brain-Heart Infusion (BHI, BD cat#237500) agar plates were prepared for zone of inhibition experiments using pooled isolated colonies from blood agar plates diluted to a standard concentration (0.5 McFarland units). Subsequently, each drug-containing disk was placed on the bacterial-streaked agar […]. Plates were incubated for 18 hours at 37° C. Electronic calipers were used to measure the cleared (no bacterial growth) diameter surrounding each disk (zone of inhibition). If no measurable zone was present the diameter was recorded as zero.
# [2] = cited from earlier work; for Solubility in organic solvents / Water solubility / pH induced in the surrounding: Table 3, for reference; for Solubility in organic solvents: cell wraps over several lines, first line given; for Solubility: ranking of solvents, Table 2
# [3] = Tobramycin thermostability during PCL formulation (bioactivity); format: physicochemical; details: after inclusion in a PCL formulation; data not shown
compound,measurement,setting,value
O=C(O)c1cn(C2CC2)c2cc(N3CCNCC3)c(F)cc2c1=O [Ciprofloxacin],zones of inhibition compared to the antibiotic salts (vancomycin and oxacillin),[1],enhanced zones of inhibition
Cc1onc(-c2ccccc2)c1C(=O)N[C@@H]1C(=O)N2[C@@H]1SC(C)(C)[C@@H]2C(=O)O [Oxacillin],Solubility in organic solvents,[2],"High: MeOH,"
same,Water solubility,[2],(13.9 mg/ml
same,pH induced in the surrounding,[2],High
CO[C@H]1/C=C/O[C@@]2(C)Oc3c(C)c(O)c4c(O)c(c(/C=N/N5CCN(C)CC5)c(O)c4c3C2=O)NC(=O)/C(C)=C\C=C\[C@H](C)[C@H](O)[C@@H](C)[C@@H](O)[C@@H](C)[C@H](OC(C)=O)[C@@H]1C [Rifampin],Solubility in organic solvents,[2],"DMSO, CHCl3,"
same,zones of inhibition compared to the antibiotic salts (vancomycin and oxacillin),[1],enhanced zones of inhibition
NC[C@H]1O[C@H](O[C@H]2[C@H](O)[C@@H](O[C@H]3O[C@H](CO)[C@@H](O)[C@H](N)[C@H]3O)[C@H](N)C[C@@H]2N)[C@H](N)C[C@@H]1O [Tobramycin],thermostability during formulation,[3],no loss in bioactivity
same,Solubility in organic solvents,[2],EtOH
same,Water solubility,[2],(538 mg/ml
same,pH induced in the surrounding,[2],Low
same,solubility in alcohols,[2]; in words,marginally soluble
same,solubility in water,[2]; in words,very water-soluble
same,solubility in water,"[2]; in words, listed as tobramycin",highly soluble
CN[C@H](CC(C)C)C(=O)N[C@H]1C(=O)N[C@@H](CC(N)=O)C(=O)N[C@H]2C(=O)N[C@H]3C(=O)N[C@H](C(=O)N[C@H](C(=O)O)c4cc(O)cc(O)c4-c4cc3ccc4O)[C@H](O)c3ccc(c(Cl)c3)Oc3cc2cc(c3O[C@@H]2O[C@H](CO)[C@@H](O)[C@H](O)[C@H]2O[C@H]2C[C@](C)(N)[C@H](O)[C@H](C)O2)Oc2ccc(cc2Cl)[C@H]1O [Vancomycin HCL],Solubility,[2],water >>> chloroform & ethanol
CN[C@H](CC(C)C)C(=O)N[C@H]1C(=O)N[C@@H](CC(N)=O)C(=O)N[C@H]2C(=O)N[C@H]3C(=O)N[C@H](C(=O)N[C@H](C(=O)O)c4cc(O)cc(O)c4-c4cc3ccc4O)[C@H](O)c3ccc(c(Cl)c3)Oc3cc2cc(c3O[C@@H]2O[C@H](CO)[C@@H](O)[C@H](O)[C@H]2O[C@H]2C[C@](C)(N)[C@H](O)[C@H](C)O2)Oc2ccc(cc2Cl)[C@H]1O [Vancomycin],Solubility in organic solvents,[2],DMSO
Tobramycin Sulfate,Solubility,[2],water >>> acetone >> ethanol
